Source: paper PMC12455637, “Functionalizing Nisin with a Sugar Moiety Improves Its Solubility and Results in an Altered Antibacterial Spectrum and Mode of Action” (ACS Synthetic Biology, 2025)
≈ marks a conversion by molar mass, not a printed value. Ends that are not written are not given here.

Assays:
[1] = system: Enterococcus faecium LMG16003 (VRE); assay type: cell-based; details: broth microdilution, inoculum ~5 × 10^5 CFU/mL, overnight 37 °C, HPLC-purified peptides
Method: (§1) The minimal inhibitory concentration (MIC) values were assessed through broth microdilution following standard guidelines. The inoculum was adjusted to around 5 × 10^5 CFU/mL. MIC was characterized as the lowest concentration of the antimicrobial substance at which no visible growth was observed following overnight incubation at 37 °C.

[2] = system: Staphylococcus aureus LMG15975 (MRSA); assay type: cell-based; details: broth microdilution, inoculum ~5 × 10^5 CFU/mL, overnight 37 °C, HPLC-purified peptides
Method: as §1

E. faecium [3] = assay type: cell-based, Enterococcus faecium; details: agar well diffusion, 30 μL of 1 mg/mL
Method: 2 Production of single-Met containing nisin and nisin variants labeled with Met, Hpg or Hpg–Glc and their antibacterial activity against E. faecium strain. (a) Quantification of fully modified nisin variants labeled with Met or Hpg using HPLC as per Schmitt et al. (b) Evaluation of the antimicrobial efficacy of nisin and its variants against E. faecium through agar well diffusion assay. Each trial was repeated 3 times. The relative activity was determined by measuring inhibition zone diameters in millimeters, calculated as the area of the zone (πr ^2) minus the area of the well (πr ^2) in millimeters.
(§2) An overnight culture was added at a concentration of 0.1% (v/v) to molten GM17 agar (for E. faecium and E. faecalis) or LB agar (for S. aureus and B. cereus) at 45 °C, and then 30 mL of this mixture was poured onto a plate. After the agar solidified, wells of 8 mm were created by punching in the agar and filled with 30 μL of a 1 mg/mL lantibiotic solution. If needed, lantibiotics were activated by adding 3 μL of 1 mg/mL NisP directly to the well. The quantity of nisin was determined using HPLC as previously outlined. The agar plate was then incubated at 37 °C overnight, and the zones of inhibition were measured. The presented data results from three independent experiments. Zone diameters were measured in millimeters and recorded as the area of the zone (πr ^2) minus the area of the well (πr ^2) in millimeters.

S. aureus = assay: Agar well diffusion assay; assay type: cell-based, Staphylococcus aureus; details: HPLC-purified peptides
Method: as §2

B. cereus = assay: Agar well diffusion assay; assay type: cell-based, Bacillus cereus; details: HPLC-purified peptides
Method: as §2

Enterococcus faecalis = assay: Agar well diffusion assay; assay type: cell-based; details: HPLC-purified peptides
Method: as §2

Solubility at neutral pH = assay type: physicochemical
Method: Highest solubility at pH 7 was obtained for nisin Z mutant M31K (7–8 mg/mL). The covalent modification of a therapeutic peptide or protein with sugar units is an established strategy to enhance drug solubility and bioavailability. The N-terminal segment of nisin contains a relatively high proportion of hydrophobic residues, while the C-terminal portion is more hydrophilic, featuring positively charged lysine and histidine side chains (Figure e). Attaching a hydrophilic sugar moiety to the C-terminal region of nisin therefore may not substantially alter its amphiphilic nature. To assess the solubility of nisin and its new variants at neutral pH, wild-type nisin or nisin(M21V)–Gal were added to a 50 mM PBS buffer solution (pH 7.2) at room temperature until precipitation occurred (Figure S7a). After equilibration, the concentration of dissolved nisin in the saturated solution was determined using high-performance liquid chromatography (HPLC).
Wild-type nisin (product code: 0305, Handary, Belgium) or nisin(M21V)–Gal was added to a 50 mM PBS buffer solution until precipitation occurred. Equilibrium was established by continuous shaking for 30 min, followed by centrifugation for 3 min at 15,000g. The concentration of the saturated nisin solution was determined using HPLC. […]

lipid II = assay: Spot-on-lawn assay of peptide-lipid II complex formation; assay type: cell-based, Enterococcus faecium; details: lipid II 300 μM, 2 μL spotted at edge of inhibition zone, E. faecium lawn, overnight 37 °C
Method: To assess the interaction between the peptide and lipid II, an overnight culture of E. faecium was added to 0.8% GM17 (w/v) at 45 °C with a final concentration of 0.1% (v/v), and the mixture was then poured into 10 mL plates. The binding of the peptide to lipid II was further examined by spotting purified lipid II (300 μM, 2 μL) at the periphery of the antibiotic inhibition zone. In brief, antimicrobials were applied to the agar plate. Once the antimicrobial solution drops had dried, lipid II was spotted at the edge of the inhibition zone. After the drops had dried, the plates were incubated overnight at 37 °C.

E. faecium [4] = assay: Time-kill assay; assay type: cell-based, Enterococcus faecium
Method: The antimicrobial effectiveness of nisin, nisin(1–22), and nisin(M21V)–Gal was assessed using a method previously described by Guo et al. , In summary, an overnight culture of E. faecium was diluted 50 times in GM17 medium and cultured at 37 °C. The bacteria were grown until reaching an optical density at 600 nm (OD600) of 0.5, and then the cell concentration was adjusted to 5 × 10^5 colony-forming units per milliliter (CFU/mL). Following this, the bacteria were exposed to a 5-fold MIC of each peptide. An untreated cell suspension was used as a control. At specific time intervals, 50 μL samples were taken, and both undiluted and 10-fold serially diluted suspensions were plated on GM17 agar. The plates were then incubated overnight at 37 °C, and the resulting colonies were counted and expressed as CFU/mL. Each experiment was conducted in triplicate.

E. faecium [5] = assay: Potassium ion efflux assay (PBFI probe); assay type: cell-based, Enterococcus faecium; details: various peptide concentrations, up to 32 times MIC; 10 mM HEPES pH 7.2, 0.5% glucose, 10 μM PBFI
Method: To conduct the K^+ release assay, the K^+-specific fluorescent probe PBFI was utilized. E. faecium was cultured in GM17 medium until it reached an OD600 of 0.6, at which point the cells were harvested (5000g, 5 min) and washed twice with 10 mM HEPES (pH 7.2) containing 0.5% glucose. The cells were then suspended in the same buffer supplemented with 10 μM PBFI. Data analysis was carried out using a Varioskan LUX Multimode Microplate Reader (Thermo Fisher Scientific), with cell excitation at 346 nm and fluorescence emission measurement at 505 nm to establish a baseline signal before the introduction of varying concentrations of antibiotics. Nisin was utilized as the positive control in this study.

E. faecium cells = assay: Membrane potential, DiSC3(5) probe; assay type: cell-based, Enterococcus faecium; details: different concentrations, 2 μM DiSC3(5), monitored 25 min, three replicates
Method: To assess the membrane potential, the membrane potential-sensitive fluorescent dye DiSC3(5) was employed. E. faecium was grown to an OD600 of 0.8, then centrifuged at 5000g for 5 min and washed twice in 10 mM HEPES with 10 mM glucose (pH 7.2). The cell density was adjusted to an OD600 of 0.2 and loaded with 2 μM DiSC3(5) dye, followed by a 20 min incubation in darkness to stabilize the probe fluorescence. Subsequently, the cell suspension was transferred to a 96-well microplate and incubated for 5 min with 100 mM KCl. Antibiotics were then introduced at a varied concentration, and the fluorescence was monitored for 25 min. The excitation and emission wavelengths on the fluorescence spectrometer were set to 622 and 670 nm, respectively. Three replicates were conducted, and a representative example is presented.

[6] = system: Staphylococcus epidermidis; details: ref citation number not printed (Twomey et al. by title); cited from earlier work
Excerpt: Recently, we introduced the Met analog Aha at position 17 and used click chemistry to ...

Molecule	MIC [1]	MIC [2]	antibacterial activity in words (E. faecium [3])	activity compared to wild-type nisin or Hpg-labeled nisin(M21V) (S. aureus)	activity compared to wild-type nisin or Hpg-labeled nisin(M21V) (B. cereus)	activity compared to wild-type nisin or Hpg-labeled nisin(M21V) (Enterococcus faecalis)	solubility thermodynamic at 30 min (Solubility at neutral pH; aqueous buffer, thermodynamic from solid, thermodynamic, solid added until precipitation, 50 mM PBS pH 7.2, room temperature, shaking 30 min, centrifugation 3 min 15,000g, HPLC at 226 nm against nisin standard curve, repeated 3 times)	solubility, times higher compared to wild-type nisin (Solubility at neutral pH; neutral pH, 50 mM PBS pH 7.2, room temperature)	effect of externally added purified lipid II on antimicrobial activity / lipid II binding (lipid II)	bacteriostatic or bactericidal nature (E. faecium [4]; 5-fold MIC against E. faecium)	reduction in bacterial population (E. faecium [4]; 5-fold MIC, after 3 h of incubation, start 5 × 10^5 CFU/mL, triplicate)	potassium ion release (PBFI fluorescence) (E. faecium [5])	membrane depolarization (DiSC3(5) fluorescence) (E. faecium cells)	influence of M17 mutation on antimicrobial activity [6]
C=C(NC(=O)[C@@H](NC(=O)[C@H](Cc1c[nH]cn1)NC(=O)[C@@H](NC(=O)[C@H](CO)NC(=O)[C@@H]1CS[C@@H](C)[C@H]2NC(=O)[C@H](C)NC(=O)[C@H](NC(=O)[C@H](CCCCN)NC(=O)[C@@H](NC(=O)[C@H](CC(N)=O)NC(=O)[C@@H]3CS[C@@H](C)[C@@H](NC(=O)[C@H](CCCCN)NC(=O)[C@@H]4CS[C@@H](C)[C@@H](NC(=O)[C@@H]5CSC[C@@H](NC(=O)/C(=C/C)NC(=O)[C@@H](N)[C@@H](C)CC)C(=O)N[C@@H]([C@@H](C)CC)C(=O)NC(=C)C(=O)N[C@@H](CC(C)C)C(=O)N5)C(=O)N5CCC[C@H]5C(=O)NCC(=O)N4)C(=O)NCC(=O)N[C@@H](C)C(=O)N[C@@H](CC(C)C)C(=O)N[C@@H](CCc4cn(C[C@H]5OC(O)[C@H](O)[C@@H](O)[C@H]5O)nn4)C(=O)NCC(=O)N3)C(C)C)[C@H](C)SC[C@H](NC2=O)C(=O)N[C@@H](Cc2c[nH]cn2)C(=O)N1)[C@@H](C)CC)C(C)C)C(=O)N[C@@H](CCCCN)C(=O)O (some centres unmarked) [nisin(M21V)–Gal]	3.8 µg/mL (≈ 1.08 µM)	15.19 µg/mL (≈ 4.33 µM)	retained high potency	reduced activity	reduced activity	significantly lower activity	8600 µg/mL (≈ 2450 µM)	3.9 times	maintained its capacity to bind to lipid II	bactericidal activity	thousand-fold	did not demonstrate this effect	lost the ability to induce membrane depolarization	
M17Q: literature nisin mutant with M17Q mutation (ITSISLCTPGCKTGALQGCNMKTATCHCSIHVSK; cysteine pairing not given here; also: lantibiotic nisin-A; UniProt P13068 24-57, looked up, variant M17Q)														enhanced effectiveness
